Test results reported in article PMC3229523, “Identification of Lactoferricin B Intracellular Targets Using an Escherichia coli Proteome Chip” (PLoS ONE, 2011).
Ends that are not written are not given here. * marks the point of attachment. Biotin = O=C1N[C@H]2[C@H](CS[C@H]2CCCCC(=O)*)N1

Columns and labels:
E. coli MG1655 = experiment: Pyruvate assay: E. coli growth (OD595); format: cell-based; conditions: 32 µM LfcinB
Text: To confirm one of the mechanisms of LfcinB action in pyruvate metabolism, a minimal medium was chosen; because general LB medium contains many carbon sources, including sugars, alcohols and organic acids, this minimal medium allowed glucose to be the sole carbon source in the pyruvate assays. Minimal medium consisted of 6 g/l NaH2PO4, 3 g/l K2HPO4, 0.5 g/l NaCl, 0.12 g/l MgSO4, 1 g/l NH4Cl, 0.01 g/l CaCl2 and 5 g/l glucose. A 0.22 µm filter (Millex®GS, Millipore) was used to filter the minimal medium. E. coli MG1655 was first inoculated into the minimal medium and incubated at 37°C for 16 h with shaking as a preculture. The preculture was diluted 100-fold with the minimal medium in 96-well plate, and 32 µM of LfcinB were added. The mixture was incubated with shaking in a microplate reader at 37°C, and the absorbance was measured after 9 h. Finally, the mixture was harvested by centrifugation at 3452 g for 5 min at 4°C, and each supernatant was removed. The pellets were then stored at −80°C.

E. coli = conditions: cited from earlier work
Protocol: Natural antimicrobial peptides are pervasive in plants, insects and animals. […] It is possible that LfcinB served as nutrient for bacteria in the beginning of the assay. […] In the middle part (2–4 h) of the growth curves, the ...

Adi = experiment: Fluorescence polarization assay, Adi; format: binding, E. coli; conditions: 100 nM DyLight 549-labeled LfcinB; protein 0.025-0.4 µM; data not shown
Text: FP assays, investigations of the binding between two molecules in a homogeneous aqueous environment, were used to validate the identified 153 proteins. […] If a fluorophore only binds to a small molecule, such as peptide, the rotation of the complex is fast and the light emits in a different plane of polarization. Therefore, the degree of polarization is low. However, once a fluorophore binds to a large molecule, the bound complex is stimulated with polarized light. The light emits in the same polarized plane, and the complex is maintained in the same plane of polarization, causing an increase in the degree of polarization [22]–[24]. The amount of molecules binding to a fluorophore influences the degree of polarization. In this study, LfcinB was labeled with DyLight™ 549 as a reference value. Once the protein bound to LfcinB, like a fluorophore binds to a large molecule, a high degree of polarization is expected.
Before the assays, LfcinB was labeled with DyLight™ 549 and tested proteins were quantified with a Pierce® bicinchoninic acid (BCA™) protein assay (Thermo). To label the LfcinB, DyLight™ 549-NHS ester and LfcinB (68∶1, mole/mole) were mixed in PBS at room temperature for 1 h, a D-Salt™ polyacrylamide desalting column (Thermo) was used to remove excess dye and the labeling efficiency of the eluted solution was calculated. […]

NrdB = experiment: E. coli proteome chip assay, NrdB; format: binding, E. coli K-12; conditions: NrdB not in the top 153 proteins; 10 nM biotinylated LfcinB
Protocol: To fabricate the proteome chips, E. coli K-12 proteins were expressed and purified in a high-throughput fashion. The procedure was modified from Chen et al.. Briefly, E. coli protein expression clones fused with a 6×-His tag, provided by Dr. Mori, were first incubated with glass beads (Biospec Products Inc.) in 2× LB medium containing 30 µg/ml chloramphenicol in 96 DeepWell™ plates (Nunc) at 37°C overnight. The overnight cultures were then diluted with 2× LB that contains 30 µg/ml chloramphenicol to the OD595 value of 0.1. When the cells grew to an OD595 value of 0.7–0.9, 500 µM of isopropyl β-D-thiogalactoside (IPTG) was added to induce protein expression at 37°C for ∼3.5 h. The cultures were then harvested by centrifugation at 3220 g for 5 min at 4°C, and the pellets were stored at −80°C before purification. […]
For image processing of chip assay results, Genepix Pro 6.0 was used to align the protein spot of each individual protein and then all aligned protein image signals were exported as a text file. The text file was analyzed by ProCAT [17], a signal normalization method. The relative ability of LfcinB to bind to each protein was estimated by the ratio of the fluorescence intensity of LfcinB to the fluorescence intensity of an anti-His antibody after the normalization. […]

Lactoferricin B (Biotin-FKCRRWQWRMKKLGAPSITCVRRAF; ends and bridges not checked) [LfcinB]
Value of OD595 after 9 h incubation (E. coli MG1655; minimal medium with glucose, 37°C, 9 h, E. coli without LfcinB 0.325±0.011): 0.267±0.011 | Initial value of OD595 (E. coli MG1655; minimal medium with glucose, 37°C, E. coli without LfcinB 0.057±0.002): 0.058±0.001 | amount (OD595) of E. coli after 9 h with vs without LfcinB (E. coli MG1655; minimal medium, 9 h): lower than the level of E. coli without LfcinB | DNA synthesis at initiation of LfcinB into the medium (E. coli): DNA synthesis was increased | DNA, RNA and protein synthesis of E. coli (E. coli; sublethal concentration): inhibited DNA, RNA and protein synthesis of E. coli | filamentation during an SOS-response (E. coli; sublethal concentration): induced filamentation during an SOS-response | binding to Adi (Adi): confirmed to bind to LfcinB | binding affinity in chip assays (NrdB): strong binding affinity with LfcinB
